Measured values from ChEMBL document CHEMBL1156230, “Identification of phenylsulfone-substituted quinoxaline (WYE-672) as a tissue selective liver X-receptor (LXR) agonist” (J Med Chem, 2010).
Active and inactive are the calls of the source. The rule behind the calls is not given here.

Assays:
Mus musculus [1] = assay: Antiatherosclerotic activity against high fat/high cholesterol fed LDLR-deficient mouse assessed as abca1 gene regulation at 3 mg/kg administered with diet for 7 days by Experion chip analysis; format: functional, organism-based; design: dose 3 mg/kg
Mus musculus [2] = assay: Antiatherosclerotic activity against high fat/high cholesterol fed LDLR-deficient mouse macrophages assessed as induction of ABCA1 expression at 10 mg/kg administered with diet for 8 weeks; format: functional, organism-based; design: dose 10 mg/kg
Mus musculus [3] = assay: Antiatherosclerotic activity against high fat/high cholesterol fed LDLR-deficient mouse duodenum assessed as induction of ABCA1 expression at 0.6 mg/kg administered with diet for 8 weeks; format: functional, organism-based; design: dose 0.6 mg/kg
Mus musculus [4] = assay: Antiatherosclerotic activity against high fat/high cholesterol fed LDLR-deficient mouse assessed as apoc1 gene regulation at 10 mg/kg administered with diet for 7 days by Experion chip analysis; format: functional, organism-based; design: dose 10 mg/kg
Mus musculus [5] = assay: Antiatherosclerotic activity against high fat/high cholesterol fed LDLR-deficient mouse assessed as abcg5 gene regulation at 0.6 mg/kg administered with diet for 7 days by Experion chip analysis; format: functional, organism-based; design: dose 0.6 mg/kg
Mus musculus [6] = assay: Antiatherosclerotic activity against high fat/high cholesterol fed LDLR-deficient mouse assessed as abca1 gene regulation at 0.6 mg/kg administered with diet for 7 days by Experion chip analysis; format: functional, organism-based; design: dose 0.6 mg/kg
Mus musculus [7] = assay: Antiatherosclerotic activity against high fat/high cholesterol fed LDLR-deficient mouse assessed as adfp gene regulation at 0.6 mg/kg administered with diet for 7 days by Experion chip analysis; format: functional, organism-based; design: dose 0.6 mg/kg
Mus musculus [8] = assay: Antiatherosclerotic activity against high fat/high cholesterol fed LDLR-deficient mouse assessed as scd1 gene regulation at 3 mg/kg administered with diet for 7 days by Experion chip analysis; format: functional, organism-based; design: dose 3 mg/kg
Mus musculus [9] = species: Mus musculus; assay: Antiatherosclerotic activity against high fat/high cholesterol fed LDLR-deficient mouse assessed as reduction in plasma triglyceride level; format: functional, organism-based
Mus musculus [10] = assay: Antiatherosclerotic activity against high fat/high cholesterol fed LDLR-deficient mouse assessed as adfp gene regulation at 10 mg/kg administered with diet for 7 days by Experion chip analysis; format: functional, organism-based; design: dose 10 mg/kg
Mus musculus [11] = assay: Antiatherosclerotic activity against high fat/high cholesterol fed LDLR-deficient mouse assessed as cyp7a1 gene regulation at 3 mg/kg administered with diet for 7 days by Experion chip analysis; format: functional, organism-based; design: dose 3 mg/kg
Mus musculus [12] = assay: Antiatherosclerotic activity against high fat/high cholesterol fed LDLR-deficient mouse assessed as ldlr gene regulation at 10 mg/kg administered with diet for 7 days by Experion chip analysis; format: functional, organism-based; design: dose 10 mg/kg
Mus musculus [13] = assay: Antiatherosclerotic activity against high fat/high cholesterol fed LDLR-deficient mouse assessed as pcsk9 gene regulation at 10 mg/kg administered with diet for 7 days by Experion chip analysis; format: functional, organism-based; design: dose 10 mg/kg
Mus musculus [14] = assay: Antiatherosclerotic activity against high fat/high cholesterol fed LDLR-deficient mouse duodenum assessed as induction of ABCG5 expression at 10 mg/kg administered with diet for 8 weeks; format: functional, organism-based; design: dose 10 mg/kg
Mus musculus [15] = assay: Antiatherosclerotic activity against high fat/high cholesterol fed LDLR-deficient mouse assessed as abcg8 gene regulation at 10 mg/kg administered with diet for 7 days by Experion chip analysis; format: functional, organism-based; design: dose 10 mg/kg
Mus musculus [16] = assay: Antiatherosclerotic activity against high fat/high cholesterol fed LDLR-deficient mouse assessed as IPl gene regulation at 10 mg/kg administered with diet for 7 days by Experion chip analysis; format: functional, organism-based; design: dose 10 mg/kg
Mus musculus [17] = assay: Antiatherosclerotic activity against high fat/high cholesterol fed LDLR-deficient mouse assessed as abcg1 gene regulation at 10 mg/kg administered with diet for 7 days by Experion chip analysis; format: functional, organism-based; design: dose 10 mg/kg
Mus musculus [18] = assay: Antiatherosclerotic activity against high fat/high cholesterol fed LDLR-deficient mouse assessed as apo5 gene regulation at 0.6 mg/kg administered with diet for 7 days by Experion chip analysis; format: functional, organism-based; design: dose 0.6 mg/kg
Mus musculus [19] = assay: Antiatherosclerotic activity against high fat/high cholesterol fed LDLR-deficient mouse assessed as IPl gene regulation at 0.6 mg/kg administered with diet for 7 days by Experion chip analysis; format: functional, organism-based; design: dose 0.6 mg/kg
Mus musculus [20] = assay: Antiatherosclerotic activity against high fat/high cholesterol fed LDLR-deficient mouse assessed as Lipc gene regulation at 3 mg/kg administered with diet for 7 days by Experion chip analysis; format: functional, organism-based; design: dose 3 mg/kg
Mus musculus [21] = assay: Antiatherosclerotic activity against high fat/high cholesterol fed LDLR-deficient mouse macrophages assessed as induction of ABCG1 expression at 3 mg/kg administered with diet for 8 weeks; format: functional, organism-based; design: dose 3 mg/kg
Mus musculus [22] = assay: Antiatherosclerotic activity against high fat/high cholesterol fed LDLR-deficient mouse assessed as abcg1 gene regulation at 3 mg/kg administered with diet for 8 weeks by Experion chip analysis
Mus musculus [23] = assay: Antiatherosclerotic activity against high fat/high cholesterol fed LDLR-deficient mouse assessed as apo5 gene regulation at 10 mg/kg administered with diet for 7 days by Experion chip analysis; format: functional, organism-based; design: dose 10 mg/kg
Mus musculus [24] = assay: Antiatherosclerotic activity against high fat/high cholesterol fed LDLR-deficient mouse assessed as srebf1 gene regulation at 3 mg/kg administered with diet for 7 days by Experion chip analysis; format: functional, organism-based; design: dose 3 mg/kg
Mus musculus [25] = assay: Antiatherosclerotic activity against high fat/high cholesterol fed LDLR-deficient mouse duodenum assessed as induction of ABCG5 expression at 0.6 mg/kg administered with diet for 8 weeks; format: functional, organism-based; design: dose 0.6 mg/kg
Mus musculus [26] = assay: Antiatherosclerotic activity against high fat/high cholesterol fed LDLR-deficient mouse assessed as adfp gene regulation at 3 mg/kg administered with diet for 7 days by Experion chip analysis; format: functional, organism-based; design: dose 3 mg/kg
Mus musculus [27] = assay: Antiatherosclerotic activity against high fat/high cholesterol fed LDLR-deficient mouse duodenum assessed as induction of SREBP-1c expression at 3 mg/kg administered with diet for 8 weeks; format: functional, organism-based; design: dose 3 mg/kg
Mus musculus [28] = assay: Antiatherosclerotic activity against high fat/high cholesterol fed LDLR-deficient mouse assessed as Fasn gene regulation at 0.6 mg/kg administered with diet for 7 days by Experion chip analysis; format: functional, organism-based; design: dose 0.6 mg/kg
Mus musculus [29] = assay: Antiatherosclerotic activity against high fat/high cholesterol fed LDLR-deficient mouse assessed as apo5 gene regulation at 3 mg/kg administered with diet for 7 days by Experion chip analysis; format: functional, organism-based; design: dose 3 mg/kg
Mus musculus [30] = assay: Antiatherosclerotic activity against high fat/high cholesterol fed LDLR-deficient mouse assessed as pcsk9 gene regulation at 0.6 mg/kg administered with diet for 7 days by Experion chip analysis; format: functional, organism-based; design: dose 0.6 mg/kg
Mus musculus [31] = assay: Antiatherosclerotic activity against high fat/high cholesterol fed LDLR-deficient mouse assessed as scd1 gene regulation at 0.6 mg/kg administered with diet for 7 days by Experion chip analysis; format: functional, organism-based; design: dose 0.6 mg/kg
Mus musculus [32] = assay: Antiatherosclerotic activity against high fat/high cholesterol fed LDLR-deficient mouse assessed as lipg gene regulation at 0.6 mg/kg administered with diet for 7 days by Experion chip analysis; format: functional, organism-based; design: dose 0.6 mg/kg
Mus musculus [33] = assay: Antiatherosclerotic activity against high fat/high cholesterol fed LDLR-deficient mouse assessed as pcsk9 gene regulation at 3 mg/kg administered with diet for 7 days by Experion chip analysis; format: functional, organism-based; design: dose 3 mg/kg
Mus musculus [34] = assay: Antiatherosclerotic activity against high fat/high cholesterol fed LDLR-deficient mouse assessed as Lipc gene regulation at 10 mg/kg administered with diet for 7 days by Experion chip analysis; format: functional, organism-based; design: dose 10 mg/kg
Mus musculus [35] = assay: Antiatherosclerotic activity against high fat/high cholesterol fed LDLR-deficient mouse assessed as pltp gene regulation at 10 mg/kg administered with diet for 7 days by Experion chip analysis; format: functional, organism-based; design: dose 10 mg/kg
Mus musculus [36] = assay: Antiatherosclerotic activity against high fat/high cholesterol fed LDLR-deficient mouse assessed as apoc1 gene regulation at 3 mg/kg administered with diet for 7 days by Experion chip analysis; format: functional, organism-based; design: dose 3 mg/kg
Mus musculus [37] = assay: Antiatherosclerotic activity against high fat/high cholesterol fed LDLR-deficient mouse assessed as apoe gene regulation at 10 mg/kg administered with diet for 7 days by Experion chip analysis; format: functional, organism-based; design: dose 10 mg/kg
Mus musculus [38] = assay: Antiatherosclerotic activity against high fat/high cholesterol fed LDLR-deficient mouse assessed as apoc1 gene regulation at 0.6 mg/kg administered with diet for 7 days by Experion chip analysis; format: functional, organism-based; design: dose 0.6 mg/kg

## Cc1nc2c(C(F)(F)F)cccc2nc1-c1ccc(-c2cccc(S(C)(=O)=O)c2)cc1
Mus musculus [1]
  Activity: Active
Mus musculus [2]
  Activity: Active
Mus musculus [3]
  Activity: Active
Mus musculus [4]
  Activity: Active
Mus musculus [5]
  Activity: Active
Mus musculus [6]
  Activity: Active
Mus musculus [7]
  Activity: Active
Mus musculus [8]
  Activity: Active
Mus musculus [9]
  Activity: inactive
Mus musculus [10]
  Activity: Active
Mus musculus [11]
  Activity: Active
Mus musculus [12]
  Activity: Active
Mus musculus [13]
  Activity: Active
Mus musculus [14]
  Activity: Active
Mus musculus [15]
  Activity: Active
Mus musculus [16]
  Activity: Active
Mus musculus [17]
  Activity: Active
Mus musculus [18]
  Activity: Active
Mus musculus [19]
  Activity: Active
Mus musculus [20]
  Activity: Active
Mus musculus [21]
  Activity: Active
Mus musculus [22]
  Activity: Active
Mus musculus [23]
  Activity: Active
Mus musculus [24]
  Activity: inactive
Mus musculus [25]
  Activity: Active
Mus musculus [26]
  Activity: Active
Mus musculus [27]
  Activity: Active
Mus musculus [28]
  Activity: Active
Mus musculus [29]
  Activity: Active
Mus musculus [30]
  Activity: Active
Mus musculus [31]
  Activity: Active
Mus musculus [32]
  Activity: Active
Mus musculus [33]
  Activity: Active
Mus musculus [34]
  Activity: Active
Mus musculus [35]
  Activity: Active
Mus musculus [36]
  Activity: Active
Mus musculus [37]
  Activity: Active
Mus musculus [38]
  Activity: Active

## O=C(O)Cc1cccc(OCCCN(Cc2cccc(C(F)(F)F)c2Cl)CC(c2ccccc2)c2ccccc2)c1
Mus musculus [1]
  Activity: Active
Mus musculus [2]
  Activity: Active
Mus musculus [3]
  Activity: Active
Mus musculus [4]
  Activity: Active
Mus musculus [5]
  Activity: Active
Mus musculus [6]
  Activity: Active
Mus musculus [7]
  Activity: Active
Mus musculus [8]
  Activity: Active
Mus musculus [9]
  Activity: inactive
Mus musculus [10]
  Activity: Active
Mus musculus [11]
  Activity: Active
Mus musculus [12]
  Activity: Active
Mus musculus [13]
  Activity: Active
Mus musculus [14]
  Activity: Active
Mus musculus [15]
  Activity: Active
Mus musculus [16]
  Activity: Active
Mus musculus [17]
  Activity: Active
Mus musculus [18]
  Activity: Active
Mus musculus [19]
  Activity: Active
Mus musculus [20]
  Activity: Active
Mus musculus [21]
  Activity: Active
Mus musculus [22]
  Activity: Active
Mus musculus [23]
  Activity: Active
Mus musculus [24]
  Activity: inactive
Mus musculus [25]
  Activity: Active
Mus musculus [26]
  Activity: Active
Mus musculus [27]
  Activity: Active
Mus musculus [28]
  Activity: Active
Mus musculus [29]
  Activity: Active
Mus musculus [30]
  Activity: Active
Mus musculus [31]
  Activity: Active
Mus musculus [32]
  Activity: Active
Mus musculus [33]
  Activity: Active
Mus musculus [34]
  Activity: Active
Mus musculus [35]
  Activity: Active
Mus musculus [36]
  Activity: Active
Mus musculus [37]
  Activity: Active
Mus musculus [38]
  Activity: Active
